ChEMBL document CHEMBL1143322, “Probing UDP-galactopyranose mutase binding pocket: a dramatic effect on substitution of the 6-position of UDP-galactofuranose” (Bioorg Med Chem Lett, 2009)

Columns and labels:
[1] = system: Escherichia coli; experiment: Ratio of Kcat to Km of Escherichia coli UDP-galactopyranose mutase; design: unit not given here
[2] = system: Escherichia coli; experiment: Activity of Escherichia coli UDP-galactopyranose mutase by HPLC
[3] = system: Escherichia coli; experiment: Inhibition of Escherichia coli UDP-galactopyranose mutase assessed as inhibition of conversion to UDP-galactopyranose; details: concentration not given here
[4] = Binding affinity to Escherichia coli UDP-galactopyranose mutase

| kcat/Km [1] | Km [2] [µM] | kcat [2] [s⁻¹] | inhibition [3] [%] | Compound | Kd [4] [µM] |
| --- | --- | --- | --- | --- | --- |
| 0.02 | 600 | 12 |  | O=c1ccn([C@@H]2O[C@H](COP(=O)(O)OP(=O)(O)O[C@H]3O[C@@H](CO)[C@H](O)[C@H]3O)[C@@H](O)[C@H]2O)c(=O)[nH]1 |  |
| 1.23 | 22 | 27 |  | O=c1ccn([C@@H]2O[C@H](COP(=O)(O)OP(=O)(O)O[C@H]3O[C@@H]([C@@H](O)CO)[C@H](O)[C@H]3O)[C@@H](O)[C@H]2O)c(=O)[nH]1 |  |
| 0.00041 | 65 | 0.033 |  | O=c1ccn([C@@H]2O[C@H](COP(=O)(O)OP(=O)(O)O[C@H]3O[C@@H]([C@@H](O)CO)[C@H](O)[C@H]3F)[C@@H](O)[C@H]2O)c(=O)[nH]1 |  |
| 0.00034 | 24000 | 7.4 | 20 | O=c1ccn([C@@H]2O[C@H](COP(=O)(O)OP(=O)(O)O[C@H]3O[C@@H]([C@@H](O)CF)[C@H](O)[C@H]3O)[C@@H](O)[C@H]2O)c(=O)[nH]1 |  |
|  |  |  | 22 | O=c1ccn([C@@H]2O[C@H](COP(=O)(O)OP(=O)(O)O)[C@@H](O)[C@H]2O)c(=O)[nH]1 [URIDINE_DIPHOSPHATE] | 14 |
| 0.0054 | 861 | 5.7 |  | O=c1ccn([C@@H]2O[C@H](COP(=O)(O)OP(=O)(O)O[C@H]3O[C@@H]([C@@H](O)CO)[C@H](F)[C@H]3O)[C@@H](O)[C@H]2O)c(=O)[nH]1 |  |
